We go through three compounds from patent US20230210154A1, “SWEET PROTEIN MUTANTS FROM TRUFFLE” (MYCOTECHNOLOGY, INC., priority 2021, published 2023).

Read-outs that look alike come from different tables or passages of the source. Residues, ends and D or L forms follow the SMILES beside them.

Experiment [1] relates to sweet taste. Put plainly: CATA time intensity of the sweet sensation, trained panel. It counts as in vivo, human. As to the method: Evaluation of thaumatin, sucrose, and SEQ ID NO:21 was carried out using a CATA (click all that apply) time intensity of the sweet sensation of named analytes in water at 0.045 mg/ml for proteins and 10% sucrose. Methodology: Time Intensity Technique; Data collection software: EyeQuestion, responses recorded every 2.57 seconds; Scaling Method: a 15-point sweet scale, e.g. score 5=5% sucrose, score 10=10% sucrose; Evaluation Protocol: small volume sip, tilt and spit test. There were 3-6 panelists and 2 replicates. All samples were blinded and presented with randomized 3-digit codes. Training Strategies: An intense training on sweet scale over 6 weeks on 15-point sweet scale to confidently assign sweet values. Due to unique sweet behavioral patterns, it is necessary to train time intensity principles over 3 weeks. Samples were tasted with a stopwatch to note times and help reach a consensus. # of Panelists: 3-6, # of replications: 2. All samples were blinded and presented with randomized 3-digit codes. Statistical analysis: due to the small # of panelists, a statistical analysis cannot be performed.

Experiment [2] deals with sweet taste. Put plainly: Concentration-response functions for sweet taste (Opertech Bio). Format: in vivo. As to conditions: for Relative to Sucrose (mM): equivalency to sucrose on a molar basis; for Relative to Sucrose (mg/ml): equivalency to sucrose on a weight basis; for EC50: half-maximal sweet taste response. As to the method:
Opertech Bio (Philadelphia, Pa.) performed a quantitative characterization of the concentration-dependence of the taste properties of the purified his-tagged mycodulcein (SEQ ID NO:21) obtained from E. coli as described in Example 5 and purified as described in Example 4. The sweet-taste potency and relative efficacy of mycodulcein was compared with sucrose and with other sweeteners thaumatin, rebaudioside A, and aspartame. Control standards were solutions of 200 mM sucrose, 100 mM NaCl, 0.5 mM quinine, and 10 mM citric acid. […] Each data point in the curves for mycodulcein, aspartame, thaumatin, rebaudioside A was calculated as the average across 32 replicates and averaged across 16 replicates for the sucrose curve; error bars are SEM. Points for water and sucrose controls were similarly calculated as the average across 128 and 64 replicates, respectively. Curves were fit by non-linear regression.
The concentrations that elicit half-maximal sweet taste response (EC50s, or potencies) were derived from the nonlinear regression. […] Also provided are the equivalencies to sucrose on a molar basis and on a weight basis.

The mark [3] stands for this setting: non-linear regression, read-out: EC50 (molar units).

As for thaumatin, in the experiment on sweet taste [1] (15 point scale, proteins 0.045 mg/ml in water vs 10% sucrose), the “maximum intensity (Imax) higher than sucrose” value was “approximately 1 point”.

Regarding `OC[C@H]1O[C@@](CO)(O[C@H]2O[C@H](CO)[C@@H](O)[C@H](O)[C@H]2O)[C@@H](O)[C@@H]1O` [sucrose], in the experiment with sweet taste [2], the “Relative to Sucrose (mM)” value was 1 and the “Relative to Sucrose (mg/ml)” value is on record as 1. In the experiment on sweet taste [2] (setting [3]), the EC50 (in general, the concentration that produces a half-maximal response) turned out to be 36 mM. Moreover, in the experiment with sweet taste [2] (read-out: EC50), the EC50 worked out at 12300 µg/mL. For the same compound, the “time to approach threshold sweetness (Intensity <1)” value in the experiment on sweet taste [1] (10% sucrose in water) was determined as 162 s.

On to `COC(=O)[C@H](Cc1ccccc1)NC(=O)[C@@H](N)CC(=O)O` [aspartame] (H-Asp-Phe-OMe), for which, in the experiment with sweet taste [2], the “Relative to Sucrose (mM)” value came out at 198. The “Relative to Sucrose (mg/ml)” value in the experiment on sweet taste [2] came to 231. Besides, the EC50 was found to be 0.182 mM in the experiment with sweet taste [2] (setting [3]) and 53.2 µg/mL in the experiment on sweet taste [2] (read-out: EC50).
